# “Also recorded” adds a separate entry of the source.
# Tests used:
# [1] = tested on: liver, cardiac, lung, testis, and brain organoids; assay: 5 organoid integrated drug screening in a miniaturized microfluidic platform, live/dead staining; type: cell-based; conditions: miniaturized system, 20 uM
# Method: (§1) Design and Results of Experiments: Adhesive film-based microfluidic platforms were fabricated as described below. As with the full-scale platform described in Example 4, five tissue constructs were initiated containing liver, cardiac, lung, testis, and brain organoids and maintained for 7 days prior to the start of the drug study. At this point, the liver modules were removed from half of the platforms. Capecitabine (20 uM) was administered to all platforms after which viability was assessed through live/dead staining or cardiac beating behavior after 7 days of exposure (day 14 of total study).
# FIG. 14 provides an overview of this fabrication methodology.
# [2] = tested on: liver, cardiac, lung, testis, and brain organoids; assay: 5 organoid integrated drug screening (standard size platform), live/dead staining; type: cell-based; conditions: 20 uM
# Method: as §1, with “Five tissue” for “Adhesive film-based microfluidic”, “platforms” for “platforms were fabricated as described below. As with the full-scale platform described in Example 4, five tissue constructs”
# SW480 cells [3] = assay: 3D hyaluronan-based hydrogel construct drug screen, MTS assay; type: cell-based; conditions: for viability at 100 µM: Homo sapiens, SW480, drug day 5, assay day 7, read-out: percent relative cell viability (MTS, relative to control)
# Method: (§2) Polydimethylsiloxane, or PDMS, was used to coat the bottom of the wells. Cells were embedded within the hyaluronan-based hydrogel and were given 5 days to acclimate to their three-dimensional environment and on day 5 were administered different anticancer drug solutions (FIG. 7, panel A). […] At 100 μM concentrations of Regorafenib and Sorafenib, cellular viability remained below 25% that of the control for all four of the colorectal cancer cell lines utilized. The only exception to this was when 100 μM Regorafenib was administered to CACO2 cells and the percent relative cell viability rose to approximately 48%. […] At a 100 μM concentration, Dabrafenib had greater efficacy in targeting the HCT116 and SW480 cell lines, which had relative cellular viability values of 38% and 43%, as opposed to the HT29 and CACO2 cell lines, which had higher cell viability values of 93% and 75%. 100 μM concentrations of Trametinib produced relative cellular viability results that fell within a narrow range for the four colorectal cell lines with values of 54% for SW480 cells and 74% for HT29 cells.
# (§3) Well Coating with PDMS and Cell Isolation: Polydimethylsiloxane, or PDMS, (DOW Corning, North Carolina, USA) was used at a 1:10 curing agent ratio to coat the bottom of the 96-well plates and the plates were then placed in a 80° C. oven for at least one hour. Cells were passaged in the same methods previously mentioned (A) with the desire to place 10 μL 3D hyaluronan-based hydrogel constructs containing 100,000 cells each ([…]) into the wells of a 96-wells plate for all four colorectal cancer cell types. Depending on the cell count, a desired number of cells were isolated in new 15 mL centrifuge tubes as cell-media solution and underwent centrifugation.
# (§4) Hydrogel Components of the Single-Cell Type Constructs: The hyaluronic acid-based hydrogel (ESI BIO, California, USA) was produced using a mixture of three components: Heprasil, Gelin-S, and Extralink PEGDA 2-ARM Acrylate crosslinker. These components were mixed in a 2:2:1 ratio by volume. 0.1% Irgacure photoinitiator (Sigma-Aldrich, Missouri, USA) was added to each of the three components prior to their mixture and the three components were placed in a 37° C. incubator for a ˜30 minutes to solubilize.
# (§5) Forming Organoid Constructs: Once solubilized, the media was aspirated from the 15 mL centrifuge tube (post-centrifugation) and the cells were isolated as a pellet. The hydrogel components were added directly into the centrifuge tube containing the cells and the cells were carefully resuspended in the mixture. 10 μL of the gel-cell solution was placed in the center of the wells on the PDMS coating. This was continued for all wells containing cells and was repeated for each cell type. After this point, the gel can be exposed to UV light from a BlueWave 200 spot light (Dymax, Connecticut, USA) to solidify the hydrogel, or one can wait ˜30 minutes for the gel to form on its own. DMEM-10 media was then placed in the wells and the constructs were incubated for 5 days.
# (§6) Anticancer Drug Screening and Cell Viability: The same five anticancer drugs were added on Day 5 and the cell viability assay occurred on Day 7.
# HT29 cells [4] = assay: as above; type: cell-based; conditions: for viability at 100 µM: Homo sapiens, HT-29, 100 μM, HT29, drug day 5, assay day 7, read-out: percent relative cell viability (MTS, relative to control)
# Method: as §2, §3, §4, §5, §6
# CACO2 cells [5] = assay: as above; conditions: Homo sapiens, Caco-2, 3D, 100 μM, CACO2, drug day 5, assay day 7; read-out: percent relative cell viability (MTS, relative to control)
# Method: as §2, §3, §4
# Forming Organoid Constructs: Once solubilized, the media was aspirated from the 15 mL centrifuge tube (post-centrifugation) and the cells were isolated as a pellet. The hydrogel components were added directly into the centrifuge tube containing the cells and the cells were carefully resuspended in the mixture. 10 μL of the gel-cell solution was placed in the center of the wells on the PDMS coating. This was continued for all wells containing cells and was repeated for each cell type. […]
# HCT116 cells [6] = assay: cells; type: cell-based; conditions: Homo sapiens, HCT-116, read-out: relative cellular viability (MTS, relative to control)
# Method: (§7) Cancer cells seeded directly into wells were given 4-5 hours to reattach to the bottom of the wells. After that time, the anticancer drug solutions were administered in place of the media (FIG. 6, panel A) and an MTS assay was carried out 2 days later to determine cell viability. […] At 100 μM concentrations of Regorafenib and Sorafenib, and 100 mM concentrations of 5-FU, cellular viability remained below 20% that of the control for all four of the colorectal cancer cell lines utilized. However, screening with Dabrafenib and Trametinib produced diverging results from the other three anticancer drugs at higher concentrations. […] When treated with 1 mM concentrations of 5-FU, relative cellular viability was approximately 39% for SW480 cells and remained between 10%-22% for the HCT116, HT29, and CACO2 cells. These values were considerably lower than the relative cellular viability values for the lowest concentrations of the other anticancer drugs.
# (§8) Cell Seeding: The original 15 mL centrifuge tubes containing the 10 mL of DMEM-10, cells, and trypsin were placed into a centrifuge. The centrifugation setting was 1500 RPM and at maximal acceleration for 5 minutes. After that time, the media and trypsin mixture was aspirated from the tubes, leaving the cell pellets still intact. 5 mL of DMEM-10 was then pipetted into each of the tubes, resuspending the cells in the process. Calculated volumes of the 5 mL cell-media solution were determined to ensure that 25,000 cells of each of the four colorectal cancer cell lines were seeded directly into each of the wells of a polystyrene clear-bottom 96-well plate. 100 μL of DMEM-10 media was then pipetted directly into the wells. The 96-well plates were incubated at 37° C. and 5% CO2 for 5 hours to allow the cells to reattach themselves to the bottom of the wells until media was aspirated and anticancer drug solutions were added.
# (§9) Addition of Anticancer Drugs for Screening: The anticolorectal cancer drugs used in this screening included 5-FU, Regorafenib, Sorafenib, Trametinib, and Dabrafenib (Sigma-Aldrich, Missouri, USA)). High concentration drug stock solutions were created with DMSO. Lower concentration drug solutions were created by mixing the anticancer drug stocks with DMEM-10 media. […] drug solutions were generated for 5-FU; 1 μM, 10 μM, and 100 μM drug solutions were generated for Regorafenib, Sorafenib, and Dabrafenib; and 1 nM, 10 nM, and 100 nM drug solutions were generated for Trametinib. Media was carefully aspirated from the wells and 200 μL of the various drug-media solutions were placed into the wells containing cells. Three duplicates were generated for each anticancer drug concentration with each of the different cell types to calculate averages and run statistics on the data generated. Well plates were then incubated at 37° C. and 5% CO2 for […].
# (§10) Cell viability assay: Cell viability was determined 48 hours after exposure to the anticancer drug solutions. The viability of the cells was examined by the CellTiter 96® AQueous One Solution Cell Proliferation (MTS) assay (Promega, Wisconsin, USA). The anticancer drug-media solutions were aspirated from the wells and 200 μL of the MTS reagent was carefully pipetted into the wells. The incubation time for the cells with the MTS reagent was approximately 45 minutes. The cell viability assay was performed on another 96-well plate and the absorbance was quantified by the EnVision Multilabel Plate Reader (PerkinElmer, California, USA).
# SW480 cells [7] = assay: 2D drug screen, MTS assay; type: cell-based; conditions: Homo sapiens, read-out: relative cellular viability (MTS, relative to control)
# Method: as §7, §8, §9, §10
# HCT116 cells [8] = assay: 3D hyaluronan-based hydrogel construct drug screen, MTS assay; conditions: Homo sapiens, HCT-116, 3D, 100 μM, HCT116, drug day 5, assay day 7; read-out: percent relative cell viability (MTS, relative to control)
# Method: Polydimethylsiloxane, or PDMS, was used to coat the bottom of the wells. Cells were embedded within the hyaluronan-based hydrogel and were given 5 days to acclimate to their three-dimensional environment and on day 5 were administered different anticancer drug solutions (FIG. 7, panel A). […], Dabrafenib had greater efficacy in targeting the HCT116 and SW480 cell lines, which had relative cellular viability values of 38% and 43%, as opposed to the HT29 and CACO2 cell lines, which had higher cell viability values of 93% and 75%. […]
# as §3, §4, §5, §6
# CACO2 cells [9] = assay: cells; type: cell-based; conditions: Homo sapiens, Caco-2, read-out: relative cellular viability (MTS, relative to control)
# Method: as §7, §8, §9, §10
# HT29 cells [10] = assay: cells; type: cell-based; conditions: Homo sapiens, HT-29, read-out: relative cellular viability (MTS, relative to control)
# Method: as §7, §8, §9, §10
# [11] = 7 days of exposure, with liver present
# [12] = 7 days of exposure, without liver
compound,measurement,setting,value
CCCCCOC(=O)Nc1nc(=O)n([C@@H]2O[C@H](C)[C@@H](O)[C@H]2O)cc1F [capecitabine],brain organoid viability (LIVE/DEAD),[1]; 7 days of exposure,brain organoid viability is high
same,cardiac and lung organoid toxicity (LIVE/DEAD),[1]; [11],heart and lung toxicity
same,cardiac and lung organoid viability (LIVE/DEAD),[1]; [12],cardiac and lung organoid viability does not decrease
same,metabolism by liver organoids,[1]; with liver present,metabolized into the toxic drug 5-FU
same,brain organoid viability (LIVE/DEAD),"[2]; 7 days of exposure, with and without liver",brain organoids suffered in both groups
same,cardiac and lung organoid toxicity (LIVE/DEAD),[2]; [11],heart and lung toxicity; also recorded: increased cell death in cardiac and lung organoids
same,cardiac and lung organoid viability (LIVE/DEAD),[2]; [12],cardiac and lung organoid viability does not decrease
same,metabolism by liver organoids,[2]; with liver present,metabolized into the toxic drug 5-FU
CC(C)(C)c1nc(-c2cccc(NS(=O)(=O)c3c(F)cccc3F)c2F)c(-c2ccnc(N)n2)s1 [Dabrafenib],viability at 100 µM,SW480 cells [3],43%
same,viability at 100 µM,HT29 cells [4],93%
same,viability at 100 µM,CACO2 cells [5],75%
same,viability at 100 µM,HCT116 cells [6],~36%
same,viability at 100 µM,SW480 cells [7],~93%
same,viability at 100 µM,HCT116 cells [8],38%
CC(=O)Nc1cccc(-n2c(=O)n(C3CC3)c(=O)c3c(Nc4ccc(I)cc4F)n(C)c(=O)c(C)c32)c1 [Trametinib],"percent relative cell viability (MTS, relative to control)","SW480 cells [3]; 100 μM concentrations of Trametinib, SW480",54%
same,"percent relative cell viability (MTS, relative to control)","HT29 cells [4]; 100 μM concentrations of Trametinib, HT29",74%
same,viability at 0.1 µM,CACO2 cells [9],~39%
same,viability at 0.1 µM,SW480 cells [7]; 100 nM,~58%
CNC(=O)c1cc(Oc2ccc(NC(=O)Nc3ccc(Cl)c(C(F)(F)F)c3)cc2)ccn1 [Sorafenib],viability at 100 µM,SW480 cells [3],< 25%
same,viability at 100 µM,HT29 cells [4],< 25%
same,viability at 100 µM,CACO2 cells [5],< 25%
same,viability at 100 µM,HCT116 cells [6],< 20%
same,viability at 100 µM,CACO2 cells [9],< 20%
same,viability at 100 µM,HT29 cells [10],< 20%
same,viability at 100 µM,SW480 cells [7],< 20%
same,viability at 100 µM,HCT116 cells [8],< 25%

# — patent publication US20190187129A1, “CANCER MODELING PLATFORMS AND METHODS OF USING THE SAME” (Wake Forest University Health Sciences, priority 2016, published 2019)
